Data: patent US10342779B2 (Therapicon S.R.L., priority 2014, dated 2019)
Where two headings read alike, the source gives them in different places.

Assays:
CYP1A2 = target: T1, CYP1A2 (Homo sapiens, UniProt P05177); details: cited from earlier work
T1 sequence (P05177 1-516): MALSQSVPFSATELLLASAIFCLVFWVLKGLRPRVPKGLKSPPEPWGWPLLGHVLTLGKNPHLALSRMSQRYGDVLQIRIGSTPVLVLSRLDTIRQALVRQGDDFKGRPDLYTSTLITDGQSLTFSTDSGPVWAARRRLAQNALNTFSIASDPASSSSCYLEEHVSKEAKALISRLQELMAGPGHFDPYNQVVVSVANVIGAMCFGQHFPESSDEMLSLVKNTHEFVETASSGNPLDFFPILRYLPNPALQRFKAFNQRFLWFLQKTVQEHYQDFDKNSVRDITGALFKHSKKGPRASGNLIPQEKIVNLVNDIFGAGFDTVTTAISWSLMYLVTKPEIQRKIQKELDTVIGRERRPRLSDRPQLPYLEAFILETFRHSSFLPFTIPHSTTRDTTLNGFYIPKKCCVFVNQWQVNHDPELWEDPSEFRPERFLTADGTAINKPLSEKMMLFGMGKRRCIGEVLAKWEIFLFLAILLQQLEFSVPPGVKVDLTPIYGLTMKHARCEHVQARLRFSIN

[1] = monkeys, oral 10 mg/kg; cited from earlier work
[2] = rat, injected 5 mg/kg; cited from earlier work
[3] = tested on: mouse-adapted DENV-2 strain D2S10; details: for Survival at day 20: IV, 19 days after challenge
[4] = rats, oral 10 mg/kg; cited from earlier work
[5] = dogs, oral 10 mg/kg; cited from earlier work
[6] = cited from earlier work
[7] = cited from earlier work; remark: listed apart in the source
[8] = dog, intravenous 3 mg/kg; cited from earlier work
[9] = monkey, intravenous 3 mg/kg; cited from earlier work
[10] = man, intravenous administration; cited from earlier work

COc1ccc2[nH]cc(CCNC(C)=O)c2c1 [Melatonin, N-acetyl-5-methoxytryptamine]
enzyme mediating 6-hydroxylation and O-demethylation (CYP1A2): mainly CYP1A2 mediated | absolute bioavailability [1]: high | apparent elimination half-life [2]: 19.8 min | Survival at day 20 ([3]; 75 mg/kg body weight): 4/6 | Survival at day 20 ([3]; 100 mg/kg body weight): 6/6 | Survival at day 20 ([3]; 150 mg/kg body weight): 6/6 | protection effects versus Dengue virus induced condition ([3]; 100 and 150 mg/Kg/day, 19 days treatment): Complete survival | absolute bioavailability [4]: moderate | absolute bioavailability [5]: high | solubility in water [6]: 1200 to 2400 µg/mL | median (range) elimination half life ([7]; healthy volunteers, oral capsules 20, 30, 50, 100 mg, across all doses): 51.7 (29.5-63.2) minutes | unchanged melatonin renal clearance ([7]; human): lower than 1% | time of rapid decrease in serum melatonin ([7]; oral 3 mg/volunteer): 240 min | time to increase in serum melatonin after oral administration ([7]; oral 3 mg/volunteer): ≤ 20 min | half-life in blood ([7]; oral 100 mg): around 41 minutes | time to maximum blood and saliva concentrations ([7]; oral 100 mg): 60 min | AUC ([7]; oral capsules 20 mg): 1102 to 13616 ng/mL/min | AUC ([7]; oral capsules 30 mg): 822 to 2491 ng/mL/min | AUC ([7]; oral capsules 50 mg): 1812 to 8915 ng/mL/min | AUC ([7]; oral capsules 100 mg): 4458 to 18229 ng/mL/min | absolute human bioavailability, average ([7]; oral, female): 8.6% | absolute human bioavailability, average ([7]; oral, male): 16.8% | absolute human bioavailability, range ([7]; oral): 1-37% | inter-subject variation of AUC of individual subjects ([7]; oral): up to 25 times | apparent elimination half-life [8]: 18.6 min | apparent elimination half-life [9]: 33.9 min | elimination half-life [10]: about 40 minutes
